The record followed here is patent US6465654B2, “Process for preparing 1-substituted, 2-substituted 1H-imidazo[4, 5-c]quinoline-4-amines” (3M Innovative Properties Company, priority 1991, dated 2002).

Assay [1] relates to interferon-α. The experiment in a line: Interferon-α induction in human cells, diluted whole blood. In kind it is cell-based. Conditions: 24 hours.
The subject of a further assay is interferon. The experiment in a line: Interferon induction in mice. The conditions noted are these: mouse serum. In kind it is in vivo. In a few lines: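 Mouse serum collected at 1, 2 and 4 h (separate groups), pooled, stored at −70° C, then assayed as for human-cell interferon. Values in α/β reference units/mL against a mouse MU-1-IF standard; "<" marks levels below assay sensitivity.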

Assay [2] concerns interferon-α. The experiment in a line: Interferon-α induction in human cells, PBM. In kind it is cell-based. The conditions noted are these: 24 hours.
The test system of assay [3] is Herpes simplex virus Type II strain 333. The assay is described as follows: Antiviral activity in guinea pigs infected with Herpes simplex virus Type II (lesion inhibition). In kind it is in vivo. Conditions: oral once daily for four days. The source says:
Female Hartley guinea pigs weighing 200 to 250 g are anesthetized with methoxyflurane (available under the […] from Pitman-Moore, Inc., Washington Crossing, N.J.), after which the vaginal area is swabbed with a dry cotton swab. The guinea pigs are then infected intravaginally with a cotton swab saturated with Herpes simplex virus Type II strain 333 (1×10^5 plaque forming units/mL). Guinea pigs are assigned to groups of 7 animals; one group for each treatment and one to serve as a control (vehicle treated). The compounds of the invention are formulated in water containing 5% Tween 80 (a polyoxyethylene sorbitan monooleate available from Aldrich Chemical Company, Inc., Milwaukee, Wis.). The, guinea pigs are treated orally once daily for four consecutive days starting 24 hours after infection. Antiviral activity is evaluated by comparing lesion development in compound-treated versus vehicle-treated guinea pigs. […] The maximum lesion score of each guinea pig is used to calculate the percentage lesion inhibition. The percentage lesion inhibition is calculated as follows: […]

For the molecule `CC(C)Cn1c(CCl)nc2c(N)nc3ccccc3c21.Cl` [Example 10, 2-Chloromethyl-1-(2-methylpropyl)-1H-imidazo[4,5-c]quinolin-4-amine Hydrochloride], the Interferon-α induction with interferon-α [1] (dose concentration 0.10 μg/mL) was <1.5 α Reference Units/mL; in the assay with interferon-α [1] (dose concentration 0.50 μg/mL), 96 α Reference Units/mL; with interferon-α [1] (dose concentration 1.0 μg/mL) it was 120 α Reference Units/mL; with interferon-α [1] (dose concentration 5.0 μg/mL) it was 120 α Reference Units/mL; with interferon-α [2] (dose concentration 0.01 μg/mL), <1.3 α Reference Units/mL; with interferon-α [2] (dose concentration 0.05 μg/mL), 28 α Reference Units/mL. Moreover, the Interferon-α induction was 140 α Reference Units/mL in the assay with interferon-α [2] (dose concentration 0.10 μg/mL), 750 α Reference Units/mL in the assay on interferon-α [2] (dose concentration 0.50 μg/mL), 750 α Reference Units/mL with interferon-α [2] (dose concentration 1.0 μg/mL) and 190 α Reference Units/mL with interferon-α [2] (dose concentration 5.0 μg/mL). Besides, the “Interferon induction in mice” value was under 120 Reference Units/mL with interferon (oral 0.3 mg/kg, 1 hr); under 120 Reference Units/mL with interferon (oral 0.3 mg/kg, 2 hr); under 120 Reference Units/mL with interferon (oral 0.3 mg/kg, 4 hr); under 120 Reference Units/mL in the assay with interferon (oral 1 mg/kg, 1 hr); under 120 Reference Units/mL with interferon (oral 1 mg/kg, 2 hr); under 120 Reference Units/mL with interferon (oral 1 mg/kg, 4 hr). Further, the “Interferon induction in mice” value in the assay on interferon (oral 3 mg/kg, 1 hr) is under 120 Reference Units/mL; in the assay with interferon (oral 3 mg/kg, 2 hr), under 120 Reference Units/mL; in the assay on interferon (oral 3 mg/kg, 4 hr) it was under 120 Reference Units/mL; with interferon (oral 10 mg/kg, 1 hr), under 120 Reference Units/mL; with interferon (oral 10 mg/kg, 2 hr), under 120 Reference Units/mL; in the assay with interferon (oral 10 mg/kg, 4 hr) it was 600 Reference Units/mL. The “% Lesion Inhibition” value in assay [3] (dose 0.5 mg/kg) worked out at 29%.

Take `CC(C)Cn1c(CN2CCCC2)nc2c(N)nc3ccccc3c21` [Example 13, 1-(2-Methylpropyl)-2-pyrrolidinomethyl-1H-imidazo[4,5-c]quinolin-4-amine]: the “Interferon induction in mice” value in the assay with interferon (oral 0.3 mg/kg, 1 hr) was under 59 Reference Units/mL; in the assay on interferon (oral 0.3 mg/kg, 2 hr), “≦130 Reference Units/mL”; with interferon (oral 0.3 mg/kg, 4 hr) it was under 59 Reference Units/mL; with interferon (oral 1 mg/kg, 1 hr) it was 130 Reference Units/mL; in the assay on interferon (oral 1 mg/kg, 2 hr), 530 Reference Units/mL; with interferon (oral 1 mg/kg, 4 hr), “≦100 Reference Units/mL”. Moreover, the “Interferon induction in mice” value is given as 230 Reference Units/mL with interferon (oral 3 mg/kg, 1 hr); 400 Reference Units/mL with interferon (oral 3 mg/kg, 2 hr); 130 Reference Units/mL with interferon (oral 3 mg/kg, 4 hr); 700 Reference Units/mL in the assay with interferon (oral 10 mg/kg, 1 hr); 1200 Reference Units/mL with interferon (oral 10 mg/kg, 2 hr); 400 Reference Units/mL in the assay with interferon (oral 10 mg/kg, 4 hr). The Interferon-α induction in the assay with interferon-α [2] (dose concentration 0.10 μg/mL) is <1.9 α Reference Units/mL; with interferon-α [2] (dose concentration 0.50 μg/mL) it was 10 α Reference Units/mL; with interferon-α [2] (dose concentration 1.0 μg/mL) it was 10 α Reference Units/mL; in the assay with interferon-α [2] (dose concentration 5.0 μg/mL), 4 α Reference Units/mL. Moreover, in assay [3] (dose 2 mg/kg), the “% Lesion Inhibition” value came out at 67%.

With `CC(C)Cn1c(C(C)(C)O)nc2c(N)nc3ccccc3c21` [Example 23, 4-Amino-α,α-dimethyl-1-(2-methylpropyl)-1H-imidazo[4,5-c]quinoline-2-methanol], the Interferon-α induction is <1.8 α Reference Units/mL with interferon-α [1] (dose concentration 0.10 μg/mL), <1.8 α Reference Units/mL with interferon-α [1] (dose concentration 0.50 μg/mL), 84 α Reference Units/mL in the assay with interferon-α [1] (dose concentration 1.0 μg/mL) and 250 α Reference Units/mL with interferon-α [1] (dose concentration 5.0 μg/mL). Also, the “Interferon induction in mice” value stood at 1200 Reference Units/mL in the assay with interferon (oral 30 mg/kg, 1 hr); 1200 Reference Units/mL with interferon (oral 30 mg/kg, 2 hr); 140 Reference Units/mL in the assay with interferon (oral 30 mg/kg, 4 hr).
